Data from patent US20260231994A1, “TASTE-ENHANCING COMPOSITION, METHOD FOR PRODUCING SAME, FOOD PRODUCT, AND METHOD FOR ENHANCING TASTE OF FOOD PRODUCT” (HOUSE FOODS GROUP INC., priority 2023, published 2026).

Experiments:
Type in all cases: in vivo
[1] = Experiment 6 sensory evaluation of cyclic dipeptides, “top sharp saltiness”
Procedure, shortened: (§1)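 Reduced-sodium curry roux (44 g in 300 g hot water) was spiked with cyclic dipeptide solutions matching heat-treated coriander or paprika levels, at 0.5% or 1.0% (w/w) final. Three evaluators scored each sample against unspiked reduced-sodium and common roux. Mean scores were graded F to AA.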

[2] = Experiment 6 sensory evaluation of cyclic dipeptides, “middle fullness (enhanced thickness)”
Procedure, shortened: as §1

[3] = Experiment 6 sensory evaluation of cyclic dipeptides, “boosting of last flavor (aftertaste)”
Procedure, shortened: as §1

[4] = Additive amount coriander 0.5% (heat-treated coriander equivalent aqueous solution, final 0.5% (w/w)), reduced-sodium curry roux
[5] = Additive amount coriander 0.5%, reduced-sodium curry roux
[6] = heat-treated coriander equivalent aqueous solution of cyclic dipeptide, final 1.0% (w/w) in reduced-sodium curry roux dispersion
[7] = heat-treated coriander equivalent aqueous solution of cyclic dipeptide, final 1.0% (w/w) in reduced-sodium curry roux dispersion, 3 evaluators
[8] = Additive amount paprika 0.5% (heat-treated paprika equivalent aqueous solution, final 0.5% (w/w)), reduced-sodium curry roux
[9] = Additive amount paprika 0.5%, reduced-sodium curry roux
[10] = heat-treated paprika equivalent aqueous solution of cyclic dipeptide, final 1.0% (w/w) in reduced-sodium curry roux dispersion
[11] = heat-treated paprika equivalent aqueous solution of cyclic dipeptide, final 1.0% (w/w) in reduced-sodium curry roux dispersion, 3 evaluators

Substance | Top sharp saltiness Average [1, 4] | Top sharp saltiness Evaluation [1, 5] | Top sharp saltiness Evaluation [1, 6] | Top sharp saltiness Average [1, 7] | Middle fullness Average [2, 5] | Middle fullness Evaluation [2, 5] | Middle fullness Evaluation [2, 6] | Middle fullness Average [2, 7] | Bosting of last flavor Average [3, 5] | Bosting of last flavor Evaluation [3, 5] | Bosting of last flavor Evaluation [3, 6] | Bosting of last flavor Average [3, 7] | Top sharp saltiness Average [1, 8] | Top sharp saltiness Evaluation [1, 9] | Top sharp saltiness Evaluation [1, 10] | Top sharp saltiness Average [1, 11] | Middle fullness Average [2, 9] | Middle fullness Evaluation [2, 9] | Middle fullness Evaluation [2, 10] | Middle fullness Average [2, 11] | further results
cyclic (Gly-Ala) [Coriander ID 57] | 2.0 points | B (“B” when it was 2.0 or higher and 2.5 or lower) | B (“B” when it was 2.0 or higher and 2.5 or lower) | 2.2 points | 2.0 points | B (“B” when it was 2.0 or higher and 2.5 or lower) | B (“B” when it was 2.0 or higher and 2.5 or lower) | 2.5 points | 2.3 points | B (“B” when it was 2.0 or higher and 2.5 or lower) | A (“A” when it was 2.6 or higher and 2.9 or lower) | 2.7 points |  |  |  |  |  |  |  |  | 
cyclic (Gly-Thr) [Coriander ID 60] | 3.3 points | AA (“AA” when it was 3.0 or higher) | B (“B” when it was 2.0 or higher and 2.5 or lower) | 2.0 points | 3.2 points | AA (“AA” when it was 3.0 or higher) | A (“A” when it was 2.6 or higher and 2.9 or lower) | 2.7 points | 3.2 points | AA (“AA” when it was 3.0 or higher) | B (“B” when it was 2.0 or higher and 2.5 or lower) | 2.5 points |  |  |  |  |  |  |  |  | 
cyclic (Leu/Ile-His) [Coriander ID 52] | 3.3 points | AA (“AA” when it was 3.0 or higher) | B (“B” when it was 2.0 or higher and 2.5 or lower) | 2.3 points | 3.2 points | AA (“AA” when it was 3.0 or higher) | A (“A” when it was 2.6 or higher and 2.9 or lower) | 2.7 points | 2.8 points | A (“A” when it was 2.6 or higher and 2.9 or lower) | AA (“AA” when it was 3.0 or higher) | 3.0 points |  |  |  |  |  |  |  |  | 
cyclic (Phe-Tyr) [Coriander ID 41] |  |  |  |  |  |  |  |  |  |  |  |  | 1.8 points | C (“C” when it was 1.1 or higher and 1.9 or lower) | A (“A” when it was 2.6 or higher and 2.9 or lower) | 2.7 points | 2.0 points | B (“B” when it was 2.0 or higher and 2.5 or lower) | AA (“AA” when it was 3.0 or higher) | 3.0 points | Bosting of last flavor Average [3, 9]: 2.0 points; Bosting of last flavor Evaluation [3, 9]: B (“B” when it was 2.0 or higher and 2.5 or lower); Bosting of last flavor Evaluation [3, 10]: A (“A” when it was 2.6 or higher and 2.9 or lower); Bosting of last flavor Average [3, 11]: 2.8 points
cyclic (Pro-Tyr) [Coriander ID 31] | 2.5 points | B (“B” when it was 2.0 or higher and 2.5 or lower) | B (“B” when it was 2.0 or higher and 2.5 or lower) | 2.0 points | 2.5 points | B (“B” when it was 2.0 or higher and 2.5 or lower) | B (“B” when it was 2.0 or higher and 2.5 or lower) | 2.0 points | 2.5 points | B (“B” when it was 2.0 or higher and 2.5 or lower) | B (“B” when it was 2.0 or higher and 2.5 or lower) | 2.0 points |  |  |  |  |  |  |  |  | 
cyclic (Pro-Glu) [Coriander ID 48] | 1.7 points | C (“C” when it was 1.1 or higher and 1.9 or lower) | B (“B” when it was 2.0 or higher and 2.5 or lower) | 2.0 points | 1.7 points | C (“C” when it was 1.1 or higher and 1.9 or lower) | B (“B” when it was 2.0 or higher and 2.5 or lower) | 2.3 points | 1.8 points | C (“C” when it was 1.1 or higher and 1.9 or lower) | B (“B” when it was 2.0 or higher and 2.5 or lower) | 2.3 points |  |  |  |  |  |  |  |  | 
cyclic (Ala-Asp) [Coriander ID 58] |  |  |  |  |  |  |  |  |  |  |  |  | 3.0 points | AA (“AA” when it was 3.0 or higher) | AA (“AA” when it was 3.0 or higher) | 3.0 points | 3.3 points | AA (“AA” when it was 3.0 or higher) | AA (“AA” when it was 3.0 or higher) | 3.0 points | Bosting of last flavor Average [3, 9]: 3.2 points; Bosting of last flavor Evaluation [3, 9]: AA (“AA” when it was 3.0 or higher); Bosting of last flavor Evaluation [3, 10]: AA (“AA” when it was 3.0 or higher); Bosting of last flavor Average [3, 11]: 3.2 points
cyclic (Val-Arg) [Coriander ID 20] | 2.7 points | A (“A” when it was 2.6 or higher and 2.9 or lower) | C (“C” when it was 1.1 or higher and 1.9 or lower) | 1.7 points | 3.3 points | AA (“AA” when it was 3.0 or higher) | B (“B” when it was 2.0 or higher and 2.5 or lower) | 2.0 points | 3.7 points | AA (“AA” when it was 3.0 or higher) | B (“B” when it was 2.0 or higher and 2.5 or lower) | 2.2 points |  |  |  |  |  |  |  |  | 
cyclic (Glu-Arg) [Coriander ID 8] |  |  |  |  |  |  |  |  |  |  |  |  | 1.8 points | C (“C” when it was 1.1 or higher and 1.9 or lower) | B (“B” when it was 2.0 or higher and 2.5 or lower) | 2.2 points | 2.2 points | B (“B” when it was 2.0 or higher and 2.5 or lower) | B (“B” when it was 2.0 or higher and 2.5 or lower) | 2.5 points | Bosting of last flavor Average [3, 9]: 2.7 points; Bosting of last flavor Evaluation [3, 9]: A (“A” when it was 2.6 or higher and 2.9 or lower); Bosting of last flavor Evaluation [3, 10]: B (“B” when it was 2.0 or higher and 2.5 or lower); Bosting of last flavor Average [3, 11]: 2.3 points
cyclic (Glu-Phe) [Coriander ID 46] | 3.0 points | AA (“AA” when it was 3.0 or higher) | B (“B” when it was 2.0 or higher and 2.5 or lower) | 2.5 points | 2.8 points | A (“A” when it was 2.6 or higher and 2.9 or lower) | A (“A” when it was 2.6 or higher and 2.9 or lower) | 2.7 points | 2.8 points | A (“A” when it was 2.6 or higher and 2.9 or lower) | B (“B” when it was 2.0 or higher and 2.5 or lower) | 2.5 points |  |  |  |  |  |  |  |  | 
